Source: patent US20240376504A1, “ENZYMATIC SYNTHESIS OF MYCOSPORINE-LIKE AMINO ACIDS” (University of Florida Research Foundation, Incorporated, priority 2021, published 2024)

Tests used:
[1] = tested on: recombinant His6-tagged MysD; assay: MysD reaction, relative activity of amino acid substrates (MG consumption by HPLC); type: biochemical, Nostoc linkia NIES-25; conditions: 0.25 μM MysD; L-Thr reaction (8 min) set as 100%; from concentrations of disubstituted MAAs produced
Method: The current and previous heterologous expression studies supported the function of MysD in the biosynthesis of disubstituted MAAs (FIG. 3).^29,35 To further characterize its catalytic properties, recombinant His6-tagged MysD of N. linkia NIES-25 was prepared from E. coli after a single affinity purification (FIG. 21). The enzyme reaction was performed with MysD (0.5 μM), MG (50 μM), and L-Thr (1 mM) in the presence of ATP (1 mM) and Mg^2+ (10 mM) at room temperature for 2 h. […] No product was formed in the control reactions without enzyme or ATP (FIG. 5A). The requirement of ATP for the MysD reaction supports its prediction as the D-Ala-D-Ala ligase-like enzyme of the ATP grasp superfamily.^29 The optimal temperature and pH of its reaction were determined at 37° C. and pH=8.5 (FIG. 22). Under these optimal reaction conditions, all 20 natural amino acids were screened (5 mM) along with MG (50 μM) in the MysD reaction. […] LC-HRMS and MS/MS analysis indicated the formation of their corresponding disubstituted MAAs, MG-Ala, MG-Arg (observed [M+H]^+: 402.1977; calculated [M+H]^+: 402.1983), MG-Cys (observed [M+H]^+: 349.1059; calculated [M+H]^+: 349.1064), mycosporine-2-Gly (observed [M+H]^+: 303.1182; calculated [M+H]^+: 303.1187), shinorine, and porphyra-334 (FIGS. 24, 25, and 26). L-Ser and L-Thr led to the complete consumption of MG in the MysD reactions after 3 h, followed by L-Cys. […] Nonetheless, the result of this biochemical study well agreed with the production of porphyra-334 along with small amounts of shinorine and MG-Ala in the above heterologous expression study (FIG. 3C). To further understand MysD's substrate preference, the enzyme concentration was lowered to 0.25 μM. […] The consumed MG level in this reaction was set as 100% to normalize its level in the five other reactions, which was determined from the concentrations of produced disubstituted MAAs in the reactions (FIG. 5C). […] Together, the results of these biochemical studies highlight the broad substrate scope of MysD and its strong preference toward L-Thr in the MAA biosynthesis.
MysD Reaction. […] The quality of MG was calculated based on its reported extinction coefficient (28,100 M^−1 cm^−1). […] The reactions were terminated and then analyzed in the HPLC and/or LC-MS analysis. […] First, the reactions were performed with 0.25 μM MysD for 8 min, which led to no more than 50% consumption of MG into porphyra-334 with the best substrate L-Thr and into shinorine with L-Ser. For the other four amino acids, the levels of their corresponding disubstituted MAAs were determined after the reaction time was elongated to 30 min. […]
HPLC and LC-MS Analysis. Samples were analyzed on a Shimadzu Prominence UHPLC system (Kyoto, Japan) coupled with a PDA detector. […]

[2] = reported value used to calculate MG; cited from earlier work

Row | Compound | consumption level of MG in the MysD reaction relative to that with L-Thr [1] | extinction coefficient [2]
1 | C[C@H](N)C(=O)O [L-Ala] | 0.4% | 
2 | N[C@@H](CS)C(=O)O [L-Cys] | 0.9% | 
3 | N[C@@H](CO)C(=O)O [L-Ser] | about 12.7% | 
4 | C[C@@H](O)[C@H](N)C(=O)O [L-Thr] | 100% | 
5 | COC1=C(NCC(=O)O)C[C@@](O)(CO)CC1=O [MG, mycosporine-glycine] |  | 28,100 M^−1 cm^−1
